Assay results from the RepoRT retention time repository (doi:10.1021/acs.analchem.1c00972).

Columns and labels:
[1] = RP, Waters ACQUITY UPLC BEH C18, 100 × 1 mm, 1.7 µm, 50 °C, 0.3 mL/min, estimated dead time 0.17 min; A: water + 0.1% formic acid + 20 mM ammonium formate; B: methanol + 0.1% formic acid + 20 mM ammonium formate; gradient (min/%B) 0/0 15/100 21/100 22/0 30/0; settings: stereoisomer not certain
[2] = RP, Waters ACQUITY UPLC BEH C18, 100 × 1 mm, 1.7 µm, 50 °C, 0.3 mL/min, estimated dead time 0.17 min; A: water + 10 mM ammonium bicarbonate; B: 10% water + 90% methanol + 10 mM ammonium bicarbonate; gradient (min/%B) 0/0 15/100 21/100 22/0 30/0; settings: stereoisomer not certain

LC retention time [1] [min]	LC retention time [2] [min]	Structure (SMILES)
14.4	14.7	CCN(CC)c1ccc2c(C)cc(=O)oc2c1 [7-Diethylamino-4-methylcoumarin]
8.94	6.65	CN(Cc1nc2c(N)nc(N)nc2[nH]c1=O)c1ccc(C(=O)NC(CCC(=O)O)C(=O)O)cc1 (stereo unspecified) [7-Hydroxymethotrexat]
19.2	14.3	CC(CCC(=O)O)C1CCC2C3C(=O)CC4CC(O)CCC4(C)C3CCC12C (stereo unspecified) [7-Oxolithocholic acid]
10.7	10.9	NC(=O)N1c2ccccc2CC(O)c2ccccc21 (stereo unspecified) [10,11-Dihydro-10-hydroxycarbamazepine]
14.5	14.8	CC(=O)C1(O)CCC2C3CCC4=CC(=O)CCC4(C)C3CCC21C (stereo not drawn) [17alpha-Hydroxyprogesterone]
6.03	10.3	CCN1CCCC1CNC(=O)c1cc(S(N)(=O)=O)ccc1OC (stereo not drawn) [(s)-(-)-Sulpiride]
9.42	9.52	CC(=O)N(C)N(C(=O)C(=O)N(C)C)c1ccccc1 [AMDOPH]
13.7	14	CSC(=O)c1cccc2nnsc12 [Acibenzolar-S-methyl]
8.84	14.6	c1ccc2nc3ccccc3cc2c1 [Acridin]
10.1	15.5	COC(=O)C1=COC(C)C2CN3CCc4c([nH]c5ccccc45)C3CC12 (stereo unspecified) [Ajmalicine]
15.5	15.9	CCc1cccc(CC)c1N(COC)C(=O)C(=O)O [Alachlor tert-oxanilic acid (OA)]
13.1	14.2	CCCSc1ccc2nc(NC(=O)OC)[nH]c2c1 [Albendazole]
9.73	12.3	COc1cc2nc(N(C)CCCNC(=O)C3CCCO3)nc(N)c2cc1OC (stereo unspecified) [Alfuzosin]
10.6	15.4	Nc1c(Br)cc(Br)cc1CNC1CCC(O)CC1 (stereo unspecified) [Ambroxol]
15.6	16	CC(=O)OCC(=O)C12OC3(CCCC3)OC1CC1C3CCC4=CC(=O)C=CC4(C)C3(F)C(O)CC12C (stereo unspecified) [Amcinonide]
16.7	20.1	CCCCc1oc2ccccc2c1C(=O)c1cc(I)c(OCCN(CC)CC)c(I)c1 [Amiodarone]
8.4	8.43	CC[N+]1([O-])CCCC1CNC(=O)c1cc(S(=O)(=O)CC)c(N)cc1OC (stereo unspecified) [Amisulpride N-Oxide]
5.66	6.74	CC1(C)SC2C(NC(=O)C(N)c3ccc(O)cc3)C(=O)N2C1C(=O)O (stereo unspecified) [Amoxicillin]

LC retention time [1] [min]	LC retention time [2] [min]	Structure (SMILES)
11.3	11.5	CC(C)(C#N)c1cc(Cn2cncn2)cc(C(C)(C)C#N)c1 [Anastrozole]
12.3	5.61	NCC(O)COc1ccc(CC(N)=O)cc1 (stereo unspecified) [Atenolol-desisopropyl]
6.38	8.56	CC(C)NCC(O)COc1ccc(CC(N)=O)cc1 (stereo unspecified) [Atenolol]
12.9	16.3	CN1CCCC(n2nc(Cc3ccc(Cl)cc3)c3ccccc3c2=O)CC1 (stereo unspecified) [Azelastine]
11.2	17.4	CCC1OC(=O)C(C)C(OC2CC(C)(OC)C(O)C(C)O2)C(C)C(OC2OC(C)CC(N(C)C)C2O)C(C)(O)CC(C)CN(C)C(C)C(O)C1(C)O (stereo unspecified) [Azithromycin]
13.1	18.2	CC(COc1ccccc1Cc1ccccc1)N1CCCCC1 (stereo unspecified) [Benproperine]
10.5	10.8	CCOC(=O)c1ccc(N)cc1 [Benzocain]
15	15.3	COc1ccc(C(=O)c2ccccc2)c(O)c1 [Benzophenone-3]
13.9	16.7	c1ccc(-c2ccc(C(c3ccccc3)n3ccnc3)cc2)cc1 (stereo unspecified) [Bifonazol]
11.1	13.8	CC(C)NCC(O)COc1ccc(COCCOC(C)C)cc1 (stereo unspecified) [Bisoprolol]
6.96	10.4	CC(C)NCC(O)COc1ccc(C(=O)O)cc1 (stereo unspecified) [Bisoprolol_M3]
14.9	13.4	COc1ccccc1Oc1c(NS(=O)(=O)c2ccc(C(C)(C)C)cc2)nc(-c2ncccn2)nc1OCCO [Bosentan]
14.8	15.1	CCCC1OC2CC3C4CCC5=CC(=O)C=CC5(C)C4C(O)CC3(C)C2(C(=O)CO)O1 (stereo unspecified) [Budesonide]
14.2	14.5	CC12CCC(=O)C=C1C=CC1C2CCC2(C)C1CCC21CCC(=O)O1 (stereo unspecified) [Canrenone]
10.9	11	NC(=O)N1c2ccccc2C2OC2c2ccccc21 (stereo unspecified) [Carbamazepine-10,11-epoxide]
16.2	16.6	CC1C(C)(C)C2=C(C(=O)CCC2)C1(C)C (stereo unspecified) [Cashmeran]
13.6	14.8	O=C(O)COCCN1CCN(C(c2ccccc2)c2ccc(Cl)cc2)CC1 (stereo unspecified) [Cetirizine]
8.34	7.67	O=C(O)c1cn(C2CC2)c2cc(N3CCNCC3)c(F)cc2c1=O [Ciprofloxacin]

Second part, the molecule before the results:

Structure (SMILES)	LC retention time [1] [min]	LC retention time [2] [min]
CC(=O)OC12COC1CC(O)C1(C)C(=O)C(O)C3=C(C)C(O)CC(O)(C(OC(=O)c4ccccc4)C21)C3(C)C (stereo unspecified) [10-Deacetylbaccatin III]	11.7	12
CC12CCC(=O)C=C1CCC1C2CCC2(C)C1CCC2(C)O (stereo not drawn) [17alpha-Methyltestosterone]	14.7	15
CCOCN(C(=O)CCl)c1c(C)cccc1CC [Acetochlor]	15	15.3
CCN1CC2(COC)C(O)CC(OC)C34C5CC6(O)C(OC)C(O)C(OC(C)=O)(C5C6OC(=O)c5ccccc5)C(C(OC)C23)C14 (stereo unspecified) [Aconitin]	12.1	15.7
Nc1ncnc2nc[nH]c12 [Adenine]	5.28	2.55
CCOC(=O)CCN(Cc1ccccc1)SN(C)C(=O)ON=C(C)SC [Alanycarb]	15.5	15.8
CNC(=O)ON=CC(C)(C)S(C)=O (stereo unspecified) [Aldicarb Sulfoxide]	6.57	6.62
CNC(=O)ON=CC(C)(C)SC [Aldicarb]	16.1	16.4
COP(=O)(OC)SCn1c(=O)oc2cc(Cl)cnc21 [Azamethiphos]	11.4	11.6
COP(=S)(OC)SCn1nnc2ccccc2c1=O [Azinphos methyl]	13.4	13.6
CCOC(=O)CCN(SN(C)C(=O)Oc1cccc2c1OC(C)(C)C2)C(C)C [Benfuracarb]	16.6	17
O=C(Nc1ccccc1)c1ccccc1I [Benodanil]	12.7	12.9
CN1C2CCC1C(C(=O)O)C(OC(=O)c1ccccc1)C2 (stereo unspecified) [Benzoylecgonin]	11.5	11.6
COc1ccc(-c2ccccc2)cc1NNC(=O)OC(C)C [Bifenazate]	14.7	15
CCCCC(CC)COP(=O)(O)OCC(CC)CCCC (stereo unspecified) [Bis(2-ethylhexyl)phosphate]	17.2	17.2
O=S(=O)(c1ccc(Cl)cc1)c1ccc(Cl)cc1 [Bis(4-chlorophenyl)sulfone]	14.9	12
Oc1ccc(C(c2ccc(O)cc2)(C(F)(F)F)C(F)(F)F)cc1 [Bisphenol AF]	15.9	14.7
COc1cc2c(cc1OC)C13CCN4CC5=CCOC6CC(=O)N2C1C6C5CC43 (stereo unspecified) [Brucine]	8.1	12.1
CC(NC(C)(C)C)C(=O)c1cccc(Cl)c1 (stereo unspecified) [Bupropion]	10.5	15.6
C=CCOC(=O)C(C)(C)OC(=O)c1cc(-n2c(=O)cc(C(F)(F)F)n(C)c2=O)ccc1Cl [Butafenacil]	14.8	15.1
CNC(=O)Oc1cccc2c1OC(C)(C)C2 [Carbofuran]	11.8	12
CCOC(=O)C(Cl)Cc1cc(-n2nc(C)n(C(F)F)c2=O)c(F)cc1Cl (stereo unspecified) [Carfentrazone-ethyl]	15.4	15.8
CC(=O)c1cc(C(C)(C)C)cc2c1CCC2(C)C [Celestolide]	17.5	17.9
CC=C(C)C(=O)OC1CCC2(C)C3CCC4C5(O)CC(O)C6(O)C(CN7CC(C)CCC7C6(C)O)C5(O)CC42OC13O (stereo unspecified) [Cevadine]	12.6	16.4
CCOP(=O)(OCC)OC(=CCl)c1ccc(Cl)cc1Cl [Chlorfenvinphos]	15.8	16.1
NC(=NCCCCCCN=C(N)N=C(N)Nc1ccc(Cl)cc1)N=C(N)Nc1ccc(Cl)cc1 [Chlorohexidine]	12.2	6.38
COc1nc(C)nc(NC(=O)NS(=O)(=O)c2ccccc2Cl)n1 [Chlorsulfuron]	12.3	9.11
